Results taken from patent US20210038559A1, “CANNABINOIDS AND DERIVATIVES FOR PROMOTING IMMUNOGENICITY OF TUMOR AND INFECTED CELLS” (priority 2018, published 2021).
Counter-ions that a name gives are not always drawn.

Test system: MHC-I expression by COLO 205 cells
Assay: cells
Format: cell-based, human
Details: Homo sapiens, COLO 205, 48 h, MHC-I expression, COLO 205 cells, compounds at 35 μM, 48 hours, flow cytometry (W6/32); read-out: Induction Fold
Protocol: A panel of synthetic cannabinoids (Cayman Chemical, #9002891) was tested for MHC class I-inducing capability in COLO 205 cells as described above. COLO 205 cells were treated with the compounds at a concentration of 35 μM and evaluated for cell surface MHC class I expression after 48 hours. Cells were harvested, stained with MHC-I mAb W6/32 (Thermo Fisher). MHC-I expression was determined by flow cytometry.

Q: Which fold induction at 35 µM does the source give for `COc1ccc(C(=O)c2c(C)n(CCN3CCOCC3)c3cc(Br)ccc23)cc1` [Example 310, [6-bromo-2-methyl-1-[2-(4-morpholinyl)ethyl]-1H-indol-3-yl](4-methoxyphenyl)-methanone] here?
A: 1.37

Q: Which fold induction at 35 µM does the source give for `CC(C)[C@H](NC(=O)c1cn(CCCCCF)c2ccccc12)C(N)=O` [Example 312, N-[(1S)-1-(aminocarbonyl)-2-methylpropyl]-1-(5-fluoropentyl)-1H-indole-3-carboxamide] here?
A: 1.35

Q: `CC(C)(NC(=O)c1cn(CCCCCF)c2ncccc12)c1ccccc1` [Example 313, 1-(5-fluoropentyl)-N-(2-phenylpropan-2-yl)-1H-pyrrolo[2,3-b] pyridine-3-carboxamide] was tested. Which fold induction at 35 µM did it give?
A: 1.33

Q: For `O=C(Oc1ccc2ncccc2c1)c1cn(CC2CCCCC2)c2ccccc12` [Example 314, quinolin-6-yl 1-(cyclohexylmethyl)-1H-indole-3-carboxylate], which fold induction at 35 µM is on record?
A: 1.32

Q: `CCCCCn1c2ccccc2c2cc(C(=O)c3cccc4ccccc34)ccc21` [Example 315, naphthalen-1-yl(9-pentyl-9H-carbazol-3-yl)methanone] was tested. Which fold induction at 35 µM did it give?
A: 1.32

Q: With `CC(F)CCCn1cc(C(=O)c2cccc3ccccc23)c2ccccc21` (stereo not shown) [Example 316, (1-(4-fluoropentyl)-1H-indol-3-yl)(naphthalen-1-yl)methanone] as the compound, how does the fold induction at 35 µM read?
A: 1.32

Q: For `CCCC(F)Cn1nc(C(=O)NC(C(N)=O)C(C)C)c2ccccc21` (stereo not shown) [Example 317, N-(1-amino-3-methyl-1-oxobutan-2-yl)-1-(2-fluoropentyl)-1H-indazole-3-carboxamide], which fold induction at 35 µM is on record?
A: 1.31

Q: Which fold induction at 35 µM does the source give for `O=C(c1ccc2c(c1)c1ccccc1n2CCCCCF)c1cccc2ccccc12` [Example 318, (9-(5-fluoropentyl)-9H-carbazol-3-yl)(naphthalen-1-yl)methanone] here?
A: 1.31

Q: `COc1ccc(C(=O)c2c(C)n(CCN3CCOCC3)c3cc(I)ccc23)cc1` [Example 320, [6-iodo-2-methyl-1-[2-(4-morpholinyl)ethyl]-1H-indol-3-yl](4-methoxyphenyl)-methanone] was tested. Which fold induction at 35 µM did it give?
A: 1.3

Q: With `CC(C)[C@H](NC(=O)c1cc(-c2ccc(F)cc2)nn1CCCCCF)C(N)=O` [Example 321, (S)-N-(1-amino-3-methyl-1-oxobutan-2-yl)-1-(5-fluoropentyl)-3-(4-fluorophenyl)-1H-pyrazole-5-carboxamide] as the compound, how does the fold induction at 35 µM read?
A: 1.29

Q: For `CC(C)(NC(=O)c1nn(CC2CCOCC2)c2ccccc12)c1ccccc1` [Example 322, N-(1-methyl-1-phenylethyl)-1-[(tetrahydro-2H-pyran-4-yl)methyl]-1H-indazole-3-carboxamide], which fold induction at 35 µM is on record?
A: 1.27

Q: `CC(C)[C@H](NC(=O)c1cn(Cc2ccccc2)c2ccccc12)C(N)=O` [Example 323, N-[(1S)-1-(aminocarbonyl)-2-methylpropyl]-1-(phenylmethyl)-1H-indole-3-carboxamide] was tested. Which fold induction at 35 µM did it give?
A: 1.26

Q: With `O=C(c1cn(CCCCCF)c2ccccc12)N1CCN(Cc2ccccc2)CC1` [Example 324, (4-benzylpiperazin-1-yl)(1-(5-fluoropentyl)-1H-indol-3-yl)methanone, monohydrochloride] as the compound, how does the fold induction at 35 µM read?
A: 1.26

Q: For `CCCCn1cc(C(=O)c2ccc3ccccc3c2)c2ccccc21` [Example 325, (1-butyl-1H-indol-3-yl)(naphthalen-2-yl)-methanone], which fold induction at 35 µM is on record?
A: 1.26

Q: How did the fold induction at 35 µM turn out when `CCCCCn1c(C)c(C(=O)c2ccc(C)c3ccccc23)c2ccccc21` [Example 326, (4-methyl-1-naphthalenyl)(2-methyl-1-pentyl-1H-indol-3-yl)-methanone] was run?
A: 1.25

Q: `O=C(Oc1ccc2cnccc2c1)c1cn(CC2CCCCC2)c2ccccc12` [Example 327, isoquinolin-6-yl 1-(cyclohexylmethyl)-1H-indole-3-carboxylate] was tested. Which fold induction at 35 µM did it give?
A: 1.24

Q: Which fold induction at 35 µM does the source give for `CCCCCn1cc(C(=O)N[C@H](C(=O)OC)C(C)C)c2ccccc21` [Example 328, N-[(1-pentyl-1H-indol-3-yl)carbonyl]-L-valine, methyl ester] here?
A: 1.24

Q: Which fold induction at 35 µM does the source give for `CCCCCn1cc(C(=O)Nc2cccc3ccccc23)c2ccccc21` [Example 329, N-1-naphthalenyl-1-pentyl-1H-indole-3-carboxamide] here?
A: 1.23

Q: How did the fold induction at 35 µM turn out when `O=C(Nc1cccc2ccccc12)c1cn(Cc2ccc(F)cc2)c2ccccc12` [Example 330, 1-(4-fluorobenzyl)-N-(naphthalen-1-yl)-1H-indole-3-carboxamide] was run?
A: 1.23

Q: How did the fold induction at 35 µM turn out when `CCCCCc1cc(O)cc(OCCCCCCCCCCC(=O)NC2CC2)c1` [Example 331, N-cyclopropyl-11-(3-hydroxy-5-pentylphenoxy)-undecanamide] was run?
A: 1.22

Q: How did the fold induction at 35 µM turn out when `O=C(Oc1ccc2ccccc2c1)c1nn(-c2ccccc2F)c2ccccc12` [Example 332, naphthalen-2-yl 1-(2-fluorophenyl)-1H-indazole-3-carboxylate] was run?
A: 1.21

Q: With `C=CCCCn1cc(C(=O)c2ccc(C)c3ccccc23)c2ccccc21` [Example 334, (4-methylnaphthalen-1-yl)(1-(pent-4-en-1-yl)-1H-indol-3-yl)methanone] as the compound, how does the fold induction at 35 µM read?
A: 1.2

Q: With `CCC(F)CCn1nc(C(=O)NC(C(N)=O)C(C)C)c2ccccc21` (stereo not shown) [Example 335, N-(1-amino-3-methyl-1-oxobutan-2-yl)-1-(3-fluoropentyl)-1H-indazole-3-carboxamide] as the compound, how does the fold induction at 35 µM read?
A: 1.2

Q: `CC(C)(C)n1cc(C(=O)c2cccc3ccccc23)c2ccccc21` [Example 336, (1-(tert-butyl)-1H-indol-3-yl)(naphthalen-1-yl)methanone] was tested. Which fold induction at 35 µM did it give?
A: 1.2

Q: `O=C(Nc1ccc2ccccc2c1)c1cn(CCCCCF)c2ccccc12` [Example 337, 1-(5-fluoropentyl)-N-(naphthalen-2-yl)-1H-indole-3-carboxamide] was tested. Which fold induction at 35 µM did it give?
A: 1.19

Q: For `CCC(F)CCn1cc(C(=O)Nc2cccc3ccccc23)c2ccccc21` (stereo not shown) [Example 338, 1-(3-fluoropentyl)-N-(naphthalen-1-yl)-1H-indole-3-carboxamide], which fold induction at 35 µM is on record?
A: 1.19

Q: Which fold induction at 35 µM does the source give for `CC(F)CCCn1cc(C(=O)Nc2cccc3ccccc23)c2ccccc21` (stereo not shown) [Example 339, 1-(4-fluoropentyl)-N-(naphthalen-1-yl)-1H-indole-3-carboxamide] here?
A: 1.19

Q: `O=C(Oc1ccc2ccncc2c1)c1cn(CCCCCF)c2ccccc12` [Example 340, isoquinolin-7-yl 1-(5-fluoropentyl)-1H-indole-3-carboxylate] was tested. Which fold induction at 35 µM did it give?
A: 1.18

Q: `O=C(c1cccc2ccccc12)c1cn(CCCCCCF)c2ccccc12` [Example 341, (1-(6-fluorohexyl)-1H-indol-3-yl)(naphthalen-1-yl)methanone] was tested. Which fold induction at 35 µM did it give?
A: 1.18

Q: Which fold induction at 35 µM does the source give for `CC(C)C(C)n1cc(C(=O)c2ccc3ccccc3c2)c2ccccc21` (stereo not shown) [Example 342, (1-(3-methylbutan-2-yl)-1H-indol-3-yl)(naphthalen-2-yl)methanone] here?
A: 1.17

Q: Which fold induction at 35 µM does the source give for `CC(C)[C@H](NC(=O)c1c2ccccc2nn1CC1CCCCC1)C(N)=O` [Example 343, (S)-N-(1-amino-3-methyl-1-oxobutan-2-yl)-2-(cyclohexylmethyl)-2H-indazole-3-carboxamide] here?
A: 1.14

Q: For `CC(C)[C@H](NC(=O)c1cc(-c2ccc(F)cc2)n(CC2CCCCC2)n1)C(N)=O` [Example 344, (S)-N-(1-amino-3-methyl-1-oxobutan-2-yl)-1-(cyclohexylmethyl)-5-(4-fluorophenyl)-1H-pyrazole-3-carboxamide], which fold induction at 35 µM is on record?
A: 1.14

Q: With `CC(C)(O)CCn1c(=O)n(C(=O)N[C@H](C(N)=O)C(C)(C)C)c2ccccc21` [Example 345, N-[(1S)-1-(aminocarbonyl)-2,2-dimethylpropyl]-2,3-dihydro-3-(3-hydroxy-3-methylbutyl)-2-oxo-1H-benzimidazole-1-carboxamide] as the compound, how does the fold induction at 35 µM read?
A: 1.13

Q: `CCCCCn1cc(C(=O)c2cccc3c(OC)cccc23)c2ccccc21` [Example 346, (5-methoxynaphthalen-1-yl)(1-pentyl-1H-indol-3-yl)methanone] was tested. Which fold induction at 35 µM did it give?
A: 1.13

Q: `COc1ccc(N2CCNCC2)cc1` [Example 347, 1-(4-Methoxyphenyl) piperazine (hydrochloride)] was tested. Which fold induction at 35 µM did it give?
A: 1.12

Q: Which fold induction at 35 µM does the source give for `CNCC(C)Cc1ccc2c(c1)OCO2` (stereo not drawn) [Example 348, N,β-dimethyl-1,3-benzodioxole-5-propanamine, monohydrochloride] here?
A: 1.11

Q: Which fold induction at 35 µM does the source give for `CCCCCn1cc(C(=O)Nc2ccc3ccccc3c2)c2ccccc21` [Example 349, N-2-naphthalenyl-1-pentyl-1H-indole-3-carboxamide] here?
A: 1.1

Q: `CCC(C)n1cc(C(=O)c2ccc3ccccc3c2)c2ccccc21` (stereo not shown) [Example 350, (1-(sec-butyl)-1H-indol-3-yl)(naphthalen-2-yl)-methanone] was tested. Which fold induction at 35 µM did it give?
A: 1.08

Q: How did the fold induction at 35 µM turn out when `CCCCCn1cc(C(=O)NC(C)(C)c2ccccc2)c2ccccc21` [Example 351, N-(1-methyl-1-phenylethyl)-1-pentyl-1H-indole-3-carboxamide] was run?
A: 1.07

Q: Which fold induction at 35 µM does the source give for `COC(=O)[C@@H](NC(=O)c1cn(CCCCCF)c2ccccc12)C(C)C` [Example 354, N-[[1-(5-fluoropentyl)-1H-indol-3-yl]carbonyl]-L-valine, methyl ester] here?
A: 1.05

Same assay, conditions: MHC-I expression, COLO 205 cells, compounds at 35 μM, 48 hours, flow cytometry (W6/32)

Q: `O=C(Oc1cccc2cccnc12)c1nn(CCCCCF)c2ccccc12` [Example 311, 1-(5-fluoropentyl)-8-quinolinyl ester-1H-indazole-3-carboxylic acid] was tested. Which “Induction Fold” value did it give?
A: 1.36 Fold

Q: For `O=C(NC12CC3CC(CC(C3)C1)C2)c1cn(CCCCCF)c2ccccc12` [Example 319, 1-(5-fluoropentyl)-N-tricyclo[3.3.1.13,7] dec-1-yl-1H-indole-3-carboxamide], which “Induction Fold” value is on record?
A: 1.31 Fold

Q: `O=C(NC12CC3CC(CC(C3)C1)C2)c1nn(CCCCCCl)c2ccccc12` [Example 333, N-((3s,5s,7s)-adamantan-1-yl)-1-(5-chloropentyl)-1H-indazole-3-carboxamide] was tested. Which “Induction Fold” value did it give?
A: 1.21 Fold
